From US20220364065A1, “COMPOSITION FOR REMOVING PLURIPOTENT STEM CELLS AND METHOD OF REMOVING PLURIPOTENT STEM CELLS” (NATIONAL UNIVERSITY CORPORATION HOKKAIDO UNIVERSITY, priority 2018, published 2022)

How the values were obtained:
mouse iPS cells [1] = assay: Teratoma formation from pretreated iPS cells in NOD/SCID mice; assay type: in vivo; details: iPS cells pretreated 2 days with 10 μM BRQ, subcutaneous in NOD/SCID mice, 4 weeks
Protocol: The viable cells (1×10^6) were suspended in 50 μl of Matrigel (manufactured by BD Biosciences) and injected subcutaneously into the buttocks of 5-8-week-old NOD/SCID mice anesthetized with 10% pentobarbital. Four weeks after the injection, the mice were sacrificed to death, and the tumors were removed and photographed for their size measurement according to the method described in Tsukamoto Y, et al., Stem Cells. 2016; 34(8): 2016-2025. Based on the measurement values obtained, the volume of the tumors was calculated by the following formula.
Volume of tumor (cm^3)=major diameterxminor diameterxminor diameter×½.
Then, 4 weeks after transplantation, the tumors were removed and observed.

mouse ES cells = assay: Immunostaining of pluripotent stem cell markers (Sox2, Nanog, Oct4), ES cells; assay type: cell-based
Protocol: The cells were fixed and immunostained as described in Kondo et al., Genes Dev. […] For the culture of ES cells and iPS cells, gelatin-coated ones were used.
For immunostaining, the cells were first washed once with PBS, then fixed by adding 4% paraformaldehyde and incubating for 10 minutes at room temperature. The cells were replaced with PBS containing 0.3% Triton X100 and incubated for 5 minutes at room temperature, then replaced with PBS containing 0.3% Triton X100 and 10% FCS (blocking solution) and incubated for 30 minutes at room temperature. The solution was replaced with primary antibody solution diluted in blocking solution and incubated for 2 hours at room temperature. After washing three times with PBS, secondary antibody and DAPI solution diluted with blocking solution were added and incubated at room temperature for 2 hours. […] Note that the cell nuclei were visualized by contrast staining with DAPI solution (1 μg/mL, manufactured by Dojindo, product code: D523). In addition, fluorescence images were acquired with an Axiolmager M1 microscope (manufactured by Carl Zeiss).
LMB is a specific inhibitor of CRM1, also known as Exportin 1.

mouse iPS cells [2] = assay: Cell proliferation and cell death (BrdU uptake, Ki67, Casp3 immunostaining), iPS cells; assay type: cell-based; details: BRQ 2 days
Protocol: (§1) The cells were fixed and immunostained as described in Kondo et al., Genes Dev. 2004, Vol. 18, Issue 23, pp. 2963-72. […] For the culture of mNSCs, PDL+fibronectin-coated ones were used (see Johe KK et al., Genes Dev. 1996, Vol. 10, Issue 24, pp. 3129 to 3140). For the culture of ES cells and iPS cells, gelatin-coated ones were used.
For immunostaining, the cells were first washed once with PBS, then fixed by adding 4% paraformaldehyde and incubating for 10 minutes at room temperature. The cells were replaced with PBS containing 0.3% Triton X100 and incubated for 5 minutes at room temperature, then replaced with PBS containing 0.3% Triton X100 and 10% FCS (blocking solution) and incubated for 30 minutes at room temperature. The solution was replaced with primary antibody solution diluted in blocking solution and incubated for 2 hours at room temperature. After washing three times with PBS, secondary antibody and DAPI solution diluted with blocking solution were added and incubated at room temperature for 2 hours. After washing three times with PBS, the cells were sealed with anti-fading agent (manufactured by DAKO, code number: 53023) and observed under a microscope. […] In addition, fluorescence images were acquired with an Axiolmager M1 microscope (manufactured by Carl Zeiss). […]

[3] = test system: mouse neural stem cells and mouse iPS cells; assay: Mixed culture of neural stem cells and iPS cells, Nestin/Nanog immunostaining; assay type: cell-based; details: 10 μM BRQ, 3 days
Protocol: as §1
For immunostaining, the cells were first washed once with PBS, then fixed by adding 4% paraformaldehyde and incubating for 10 minutes at room temperature. The cells were replaced with PBS containing 0.3% Triton X100 and incubated for 5 minutes at room temperature, then replaced with PBS containing 0.3% Triton X100 and 10% FCS (blocking solution) and incubated for 30 minutes at room temperature. The solution was replaced with primary antibody solution diluted in blocking solution and incubated for 2 hours at room temperature. After washing three times with PBS, secondary antibody and DAPI solution diluted with blocking solution were added and incubated at room temperature for 2 hours. After washing three times with PBS, the cells were sealed with anti-fading agent (manufactured by DAKO, code number: 53023) and observed under a microscope. […] In addition, fluorescence images were acquired with an Axiolmager M1 microscope (manufactured by Carl Zeiss).
The cells were then analyzed by immunostaining as described above.

[4] = test system: teratomas formed from mouse iPS cells; assay: Anti-teratoma activity in NOD/SCID mice, iPS cell-derived tumors; assay type: in vivo
Protocol: For tumors, 10-μm-thick sections were prepared and immunostained using the methods described by Kondo T. and Raff M., EMBO J. 2000; 19(9): 1998-2007, and Takanaga H, et al., Stem Cells. 2009; 27(1): 165-174. The following antibodies were used for this immunostaining.
TOCRIS) PBS solution was administered daily intraperitoneally to mice bearing subcutaneous tumors. Five days after intraperitoneal administration, the mice were sacrificed to death, and the tumors were removed and photographed for pathological analysis according to the method described in Tsukamoto Y, et al., Stem Cells. 2016; 34(8): 2016-2025.
Next, sections of these tumors were prepared, immunolabeled for the proliferation marker Ki67, pluripotent stem cell markers (Oct4 and Nanog), and differentiation markers (ATF, βIII tubulin, and SMA), and observed.

[5] = test system: NT2: human embryonal carcinoma (EC) cells; assay: MTT assay, viability of NT2 cells; assay type: cell-based; details: 10 μM BRQ, 3 days
Protocol: (§2) One thousand cells were seeded into each well of a 96-well plate and cultured for 3 days in medium (200 μL/well) supplemented with only DMSO at a final concentration of 0.1% or in medium (200 μL/well) supplemented with each dihydroorotate dehydrogenase (DHODH) inhibitor. The medium used was the appropriate culture solution for each cell as described above.
(§3) The concentration of each DHODH inhibitor added to the medium was a 2-fold dilution series starting from 200 μM.
(§4) As a background, a well containing medium only was prepared, and as a control, a well was also prepared in which medium containing Triton X-100 (final concentration 0.2%) was added to the cells.
(§5) Then, 5 μL of MTT (5 mg/ml, manufactured by Wako) was added to each well, and the cells were incubated at 37° C. for 2 to 3 hours. Then, the medium was replaced with 100 μL of DMSO to lyse the cells, and the absorbance of these cell lysates at a wavelength of 570 nm was measured with a microplate reader (manufactured by Bio-Rad, Benchmark model). In addition, based on the obtained absorbance, the cell viability was calculated by the following formula.
(§6) Cell viability (%)=(absorbance in wells with DHODH inhibitor-absorbance in background)/(absorbance in control-absorbance in background)×100. […]

C2C12: mouse myoblasts = assay: MTT assay, viability of C2C12 cells; assay type: cell-based; details: 10 μM BRQ, 3 days
Protocol: as §2, §3, §4, §5, §6

mouse iPS cells [6] = assay: MTT assay, viability of mouse iPS cells; assay type: cell-based; details: 3 days
Protocol: as §2, §3, §4, §5
Cell viability (%)=(absorbance in wells with DHODH inhibitor-absorbance in background)/(absorbance in control-absorbance in background)×100.

[7] = ES cells, 2 days, BRQ 10 μM (ZVAD 100 nM where added)
[8] = mouse ES cells, 10 μM BRQ, 24 hours

## Cc1c(-c2ccc(-c3ccccc3F)cc2)nc2ccc(F)cc2c1C(=O)O [BRQ, 6-fluoro-2-(2′-fluoro-1,1′-biphenyl-4-yl)-3-methyl-4-quinoline-sodium carboxylate]
Mouse iPS cells [1]
  tumor formation from pretreated cells: did not proliferate
Mouse ES cells; [7]
  Nanog-positive cells: 6%
  Oct4-positive cells: 2%
Mouse ES cells; [8]
  cells in which expression of Sox2 was not observed: about 30%
  inhibition of cell proliferation or cell death: inhibition of cell proliferation or cell death was already observed
Mouse ES cells; mouse ES cells, 10 μM BRQ, 2 days
  subcellular localization of Nanog: distributed in the cytoplasm
Mouse iPS cells [2]
  CASP3 activation (Casp3 immunostaining): strongly activated
  cell proliferation (BrdU uptake assay): reduced the proliferation
[3]; ES cell medium
  iPS cells (Nanog) in mixed culture: lost
[3]; mixed with iPS cells
  cytotoxicity to neural stem cells (Nestin) in mixed culture: no obvious cytotoxicity
[4]; iPS cell-derived tumors
  number of Oct4-positive cells and Nanog-positive cells in tumors: significantly decreased
[4]; iPS cell-derived tumors, BRQ intraperitoneally
  tumor proliferation: suppressed
[4]; iPS cell-derived tumors, BRQ- vs DMSO-treated
  cells expressing differentiation markers (ATF, βIII tubulin, SMA) in tumors: similarly contained in both tumors
[4]; iPS cell-derived tumors, compared to DMSO-treated tumors
  Ki67-positive proliferating cells in tumors: significantly reduced
[4]; iPS cell-derived, BRQ intraperitoneally (DMSO control 1.37 cm^3)
  sizes of teratomas: 0.32 cm^3
[5]
  cytotoxic activity (viability, MTT assay): significant cytotoxic activity
C2C12: mouse myoblasts
  cytotoxic activity (viability, MTT assay): no significant cytotoxic activity
Mouse iPS cells [6]; 10 μM BRQ
  cytotoxic activity (viability, MTT assay): significant cytotoxic activity
Mouse iPS cells [6]; 2-fold dilution series starting from 200 μM
  cytotoxic activity (viability, MTT assay): significant cytotoxic activity
